# Assay results taken from PMC12376244 (Chembiochem, 2025).
# Experiments:
# CmSTC1 = assay: malachite green phosphate release assay, coupled to yeast pyrophosphatase; type: biochemical, Cubamyces menziesii; details: 5 mM MgCl2, Tris-HCl/MES/CAPS buffer, pH 7.8; FDP range 3.125 to 50 or 75 μM
# CmSTC3 = assay: as above; type: biochemical, Cubamyces menziesii; details: 5 mM MgCl2, Tris-HCl/MES/CAPS buffer, pH 7.8; FDP range 3.125 to 50 or 75 μM
smiles,measurement,setting,value
CC(C)=CCC/C(C)=C/CC/C(C)=C/COP(=O)(O)OP(=O)(O)O [FDP],Km,CmSTC1,68.2 µM
same,Km,CmSTC3,19.9 µM
